Data set [1] in a line: Stability of compounds in human liver microsomes. Particulars: for CLint scaled at 0.5 μM / half-life at 0.5 μM: both sexes, pH 7.4; for CLint scaled at 0.5 μM: liver microsomes, calculated from HLM half-life, read-out: HLM Scaled Intrinsic Clearance; for CLint scaled at 0.5 μM / Predicted Max. Bioavailability (% F) / HLM Predicted Systemic Clearance: human; for half-life at 0.5 μM: 0.5 μM compound, 0.5 mg/mL human liver microsomes, 37° C., maxed at 420 minutes, read-out: HLM Elimination half-life (t1/2, min); for Predicted Max. Bioavailability (% F): predicted from HLM data; for HLM Predicted Systemic Clearance: scaled from HLM half-life (Obach method). The format is in vitro ADME. Here is the method:
A test compound (0.5 μM) was incubated with pooled mixed gender liver microsomes from humans (0.5 mg/mL total protein) at 37° C. in the presence of an NADPH-generating system containing 50 mM, pH 7.4 potassium phosphate buffer, 3 mM magnesium chloride, 1 mM EDTA, 1 mM NADP, 5 mM glusose-6-phosphate, and 1 Unit/mL glucose-6-phosphate dehydrogenase. All concentrations were relative to the final incubation volume of 125 μL. Incubations were conducted at 37° C. for 0, 5, 10, 20, 40, and 60 minutes in a water bath and terminated by rapid mixing with 150 μL of ice-cold acetonitrile containing internal standard. Precipitated proteins were removed by centrifugation prior to LC-MS/MS analysis. Aliquots of the resulting supernatant fractions were analyzed by LC-MS/MS monitoring for depletion of parent compound. The resultant peak area ratio versus time data was fitted to a non-linear regression using XLfit Scientific Curve Fitting Software (IDBS Ltd., Surrey, UK) and the elimination half-life (t1/2, min) was calculated from the slope. […] Additional values calculated included predicted extraction ratio and predicted maximum bioavailability.

The target of another data set is human VMAT2 (Homo sapiens (Human), UniProt Q05940). Briefly: VMAT2 radioligand binding, 3H-dihydrotetrabenazine competition on human platelet homogenate. Put shortly: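 Ki from scintillation counting of filter-bound ³H-dihydrotetrabenazine (10 nM) after 90 min, 25 °C incubation with twelve concentrations of compound. Membranes: human platelet homogenate, 30 μg protein per well; buffer DPBS, 1 mM EDTA, pH 7.4.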

Where [2] appears, read: 10 nM 3H-dihydrotetrabenazine, human platelet homogenate, 25° C., 90 minutes, read-out: VMAT2 Ki.

Read-outs that look alike come from different tables or passages of the source. Bounds are passed on as bounds.

Chain of human VMAT2 (Q05940 whole entry): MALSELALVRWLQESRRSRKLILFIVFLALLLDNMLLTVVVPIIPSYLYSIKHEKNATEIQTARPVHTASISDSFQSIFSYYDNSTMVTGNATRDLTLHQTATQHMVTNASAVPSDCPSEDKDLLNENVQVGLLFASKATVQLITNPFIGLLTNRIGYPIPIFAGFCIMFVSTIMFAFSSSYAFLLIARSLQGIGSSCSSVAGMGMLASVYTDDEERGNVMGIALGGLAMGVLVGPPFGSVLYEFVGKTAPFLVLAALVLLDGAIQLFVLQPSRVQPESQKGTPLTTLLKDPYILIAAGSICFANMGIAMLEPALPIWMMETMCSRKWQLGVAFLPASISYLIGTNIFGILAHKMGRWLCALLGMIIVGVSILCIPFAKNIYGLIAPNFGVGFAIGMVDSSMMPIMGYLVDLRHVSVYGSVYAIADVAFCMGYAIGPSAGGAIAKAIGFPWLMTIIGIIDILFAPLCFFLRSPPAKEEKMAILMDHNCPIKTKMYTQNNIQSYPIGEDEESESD

Usually Ki stands for a dissociation constant, usually derived from enzyme kinetics or from competition with a known ligand. `COc1cc2c(cc1OCCOC1(C#N)CCOCC1)CCN1C[C@@H](CC(C)(C)C)[C@H](O)C[C@H]21` [Compound 4-41, 4-(2-{[(2R,3R,11bR)-3-(2,2-dimethylpropyl)-2-hydroxy-10-methoxy-1H,2H,3H,4H,6H,7H,11bH-pyrido[2,1-a]isoquinolin-9-yl]oxy}ethoxy)oxane-4-carbonitrile]: in data set [1], the CLint scaled at 0.5 μM is 2.71 L/h/kg, the half-life at 0.5 μM came out at 28 min, the “Predicted Max. Bioavailability (% F)” value is on record as 31 % F and the “HLM Predicted Systemic Clearance” value was 0.8322 L/h/kg. Moreover, on human VMAT2 (setting [2]), the Ki was determined as 0.238 µM.
In the case of `COc1cc2c(cc1OCC1(C#N)CCC1)CCN1C[C@@H](CC(C)(C)C)[C@H](O)C[C@H]21` [Compound 4-42, 1-({[(2R,3R,11bR)-3-(2,2-dimethylpropyl)-2-hydroxy-10-methoxy-1H,2H,3H,4H,6H,7H,11bH-pyrido[2,1-a]isoquinolin-9-yl]oxy}methyl)cyclobutane-1-carbonitrile], in data set [1], the CLint scaled at 0.5 μM was 1.46 L/h/kg, the half-life at 0.5 μM stood at 51 min, the “Predicted Max. Bioavailability (% F)” value is recorded as 45 % F and the “HLM Predicted Systemic Clearance” value was 0.6588 L/h/kg. Further, the Ki on human VMAT2 (setting [2]) worked out at 0.035 µM.
Taken in the same sequence, the figures for `COc1cc2c(cc1OCCOC(C#N)C1CC1)CCN1C[C@@H](CC(C)(C)C)[C@H](O)C[C@H]21` (stereo partly drawn) [Compound 4-43, 2-(2-{[(2R,3R,11bR)-3-(2,2-dimethylpropyl)-2-hydroxy-10-methoxy-1H,2H,3H,4H,6H,7H,11bH-pyrido[2,1-a]isoquinolin-9-yl]oxy}ethoxy)-2-cyclopropylacetonitrile] were 4.13 L/h/kg, 18 min, 23 % F, 0.93 L/h/kg and 0.0048 µM.
For the compound `COc1cc2c(cc1OCCOC(C)(C)C#N)CCN1C[C@@H](CC(C)(C)C)[C@H](O)C[C@H]21` [Compound 4-44, 2-(2-{[(2R,3R,11bR)-3-(2,2-dimethylpropyl)-2-hydroxy-10-methoxy-1H,2H,3H,4H,6H,7H,11bH-pyrido[2,1-a]isoquinolin-9-yl]oxy}ethoxy)-2-methylpropanenitrile], in data set [1], the CLint scaled at 0.5 μM was 1.61 L/h/kg, the half-life at 0.5 μM amounted to 46 min, the “Predicted Max. Bioavailability (% F)” value was 43 % F and the “HLM Predicted Systemic Clearance” value was 0.6882 L/h/kg. For the same compound, the Ki at human VMAT2 (setting [2]) amounted to 0.0024 µM.
Consider `COc1cc2c(cc1OCCC1(C#N)CC1)CCN1C[C@@H](CC(C)(C)C)[C@H](O)C[C@H]21` [Compound 4-45, 1-(2-{[(2R,3R,11bR)-3-(2,2-dimethylpropyl)-2-hydroxy-10-methoxy-1H,2H,3H,4H,6H,7H,11bH-pyrido[2,1-a]isoquinolin-9-yl]oxy}ethyl)cyclopropane-1-carbonitrile], for which, in data set [1], the CLint scaled at 0.5 μM was 0.582 L/h/kg, the half-life at 0.5 μM is 129 min, the “Predicted Max. Bioavailability (% F)” value is given as 67 % F and the “HLM Predicted Systemic Clearance” value is 0.392 L/h/kg. The Ki on human VMAT2 (setting [2]) stood at 0.0073 µM.
Taken in the same sequence, the figures for `COc1cc2c(cc1OCC1(CC#N)CC1)CCN1C[C@@H](CC(C)(C)C)[C@H](O)C[C@H]21` [Compound 4-46, 2-[1-({[(2R,3R,11bR)-3-(2,2-dimethylpropyl)-2-hydroxy-10-methoxy-1H,2H,3H,4H,6H,7H,11bH-pyrido[2,1-a]isoquinolin-9-yl]oxy}methyl)cyclo-propyl]acetonitrile] were 2.71 L/h/kg, 28 min, 31 % F, 0.8316 L/h/kg and 0.025 µM.
Taken in the same sequence, the figures for `COc1cc2c(cc1OCC(C)(C)O)CCN1C[C@@H](CC(C)(C)C)[C@H](O)C[C@H]21` [Compound 4-47, (2R,3R,11bR)-3-(2,2-dimethylpropyl)-9-(2-hydroxy-2-methylpropoxy)-10-methoxy-1H,2H,3H,4H,6H,7H,11bH-pyrido[2,1-a]isoquinolin-2-ol] were no more than 0.178 L/h/kg, no less than 420 min, no less than 87 % F, no more than 0.155 L/h/kg and 0.015 µM.
As for `COc1cc2c(cc1OC[C@@H](O)C(F)(F)F)CCN1C[C@@H](CC(C)(C)C)[C@H](O)C[C@H]21` [Compound 4-49, (2R,3R,11bR)-3-(2,2-dimethylpropyl)-10-methoxy-9-[(2R)-3,3,3-trifluoro-2-hydroxypropoxy]-1H,2H,3H,4H,6H,7H,11bH-pyrido[2,1-a]isoquinolin-2-ol], in data set [1], the CLint scaled at 0.5 μM is no more than 0.178 L/h/kg, the half-life at 0.5 μM was no less than 420 min, the “Predicted Max. Bioavailability (% F)” value was no less than 87 % F and the “HLM Predicted Systemic Clearance” value is no more than 0.155 L/h/kg. Also, on human VMAT2 (setting [2]), the Ki came out at 0.02 µM.
Taken in the same sequence, the figures for `COc1cc2c(cc1OCC(O)C(F)F)CCN1C[C@@H](CC(C)(C)C)[C@H](O)C[C@H]21` (stereo partly drawn) [Compound 4-51, (2R,3R,11bR)-9-(3,3-difluoro-2-hydroxypropoxy)-3-(2,2-dimethylpropyl)-10-methoxy-1H,2H,3H,4H,6H,7H,11bH-pyrido[2,1-a]isoquinolin-2-ol] were no more than 0.178 L/h/kg, no less than 420 min, no less than 87 % F, no more than 0.155 L/h/kg and 0.0094 µM.
Turning to `[2H]C([2H])([2H])Oc1cc2c(cc1OC)[C@H]1C[C@@H](O)[C@H](CC(C)(C)C)CN1CC2` [Compound 4-52, (2R,3R,11bR)-3-(2,2-dimethylpropyl)-9-(methoxy-d3)-10-methoxy-1H,2H,3H,4H,6H,7H,11bH-pyrido[2,1-a]isoquinolin-2-ol], in data set [1], the CLint scaled at 0.5 μM was no more than 0.178 L/h/kg, the half-life at 0.5 μM was no less than 420 min, the “Predicted Max. Bioavailability (% F)” value was no less than 87 % F and the “HLM Predicted Systemic Clearance” value was no more than 0.155 L/h/kg. At human VMAT2, this compound gave a Ki of 0.0025 µM.
For the compound `COc1cc2c(cc1O[C@@H]1CCOC1)CCN1C[C@@H](CC(C)(C)C)[C@H](O)C[C@H]21` [Compound 4-53, (2R,3R1bR)-3-(2,2-dimethylpropyl)-10-methoxy-9-[(3R)-oxolan-3-yloxy]-1H,2H,3H,4H,6H,7H,11bH-pyrido[2,1-a]isoquinolin-2-ol], in data set [1], the CLint scaled at 0.5 μM is 0.514 L/h/kg, the half-life at 0.5 μM came to 146 min, the “Predicted Max. Bioavailability (% F)” value is reported as 70 % F and the “HLM Predicted Systemic Clearance” value is 0.36 L/h/kg. Besides, the Ki at human VMAT2 (setting [2]) came to 0.012 µM.
As to `COc1cc2c(cc1O[C@H]1CCOC1)CCN1C[C@@H](CC(C)(C)C)[C@H](O)C[C@H]21` [Compound 4-54, (2R,3R,11bR)-3-(2,2-dimethylpropyl)-10-methoxy-9-[(3S)-oxolan-3-yloxy]-1H,2H,3H,4H,6H,7H,11bH-pyrido[2,1-a]isoquinolin-2-ol], in data set [1], the CLint scaled at 0.5 μM was 0.455 L/h/kg, the half-life at 0.5 μM is 164 min, the “Predicted Max. Bioavailability (% F)” value was 73 % F and the “HLM Predicted Systemic Clearance” value was 0.33 L/h/kg. Also, the Ki on human VMAT2 (setting [2]) came out at 0.012 µM.
